Key:
Assay type in all cases: cell-based
hA2a = hA2a (Homo sapiens (Human), UniProt P29274); assay: cAMP inhibition assay in hA2a/CHO cells; conditions: adenosine stimulation, read-out: cAMP & FLIPR IC50 (nM) hA2a
Outline: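 CHO cells expressing human A2a, human A2b or mouse A2a, 5×10^3 cells/well, pre-incubated with compound 30 min at 37 °C, then stimulated with […] adenosine 30 min at 37 °C. cAMP read after 60 min room-temperature incubation with detection reagent.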

hA1 = hA1 (Homo sapiens (Human), UniProt P30542); assay: FLIPR inhibition assay in hADORA1/CHO (hA1 expressing) cells; conditions: hADORA1/CHO cells, FLIPR calcium, adenosine stimulation; read-out: cAMP & FLIPR IC50 (nM) hA1
Chain of hA1 (P30542 whole entry): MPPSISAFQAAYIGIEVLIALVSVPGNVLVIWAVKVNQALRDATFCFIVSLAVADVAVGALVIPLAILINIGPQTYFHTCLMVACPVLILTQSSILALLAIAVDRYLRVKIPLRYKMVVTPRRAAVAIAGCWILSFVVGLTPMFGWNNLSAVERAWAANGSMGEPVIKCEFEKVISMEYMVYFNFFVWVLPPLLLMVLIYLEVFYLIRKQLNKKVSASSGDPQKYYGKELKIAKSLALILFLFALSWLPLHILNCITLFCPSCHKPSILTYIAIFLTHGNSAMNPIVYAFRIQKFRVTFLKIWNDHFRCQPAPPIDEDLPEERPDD
Outline: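 CHO cells expressing human A1 were plated at 1×10^4 cells/well the day before, then loaded with FLIPR Calcium 5 dye for 60 min at 37 °C, 5% CO2. Compounds were added at several concentrations for 400 s before stimulation with […] adenosine. The calcium signal was recorded by FLIPR.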

hA2b = hA2b (Homo sapiens (Human), UniProt P29275); assay: cAMP inhibition assay in hA2b/CHO cells; conditions: adenosine stimulation, read-out: cAMP & FLIPR IC50 (nM) hA2b
Chain of hA2b (P29275 whole entry): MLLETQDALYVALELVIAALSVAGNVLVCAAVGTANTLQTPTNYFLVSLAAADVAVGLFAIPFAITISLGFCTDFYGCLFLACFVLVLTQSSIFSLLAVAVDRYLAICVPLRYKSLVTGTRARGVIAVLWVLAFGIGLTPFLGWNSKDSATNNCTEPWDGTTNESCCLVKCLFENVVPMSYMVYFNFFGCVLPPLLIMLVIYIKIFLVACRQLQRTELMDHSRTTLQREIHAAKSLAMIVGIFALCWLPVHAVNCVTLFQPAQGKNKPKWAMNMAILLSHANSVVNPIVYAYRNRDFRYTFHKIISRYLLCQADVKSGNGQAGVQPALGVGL
Experimental: (§1) hA2a/CHO, hA2b/CHO and mA2a/CHO (Genscript) were plated at 5×10^3 cells/well into 384-well polystyrene plates at the day of experiment. Compounds were pre-incubated with cells for 30 min at 37° C., 5% CO2. Then […] adenosine was added to the cells and incubated for 30 min at 37° C., 5% CO2. Detection reagent (CISBIO) was added and the plates were incubated for 60 min at room temperature. The signal was captured by Envision.

mA2a = mA2a (Mus musculus (Mouse), UniProt Q60613); assay: cAMP inhibition assay in mA2a/CHO cells; conditions: adenosine stimulation, read-out: cAMP & FLIPR IC50 (nM) mA2a
Chain of mA2a (Q60613 whole entry): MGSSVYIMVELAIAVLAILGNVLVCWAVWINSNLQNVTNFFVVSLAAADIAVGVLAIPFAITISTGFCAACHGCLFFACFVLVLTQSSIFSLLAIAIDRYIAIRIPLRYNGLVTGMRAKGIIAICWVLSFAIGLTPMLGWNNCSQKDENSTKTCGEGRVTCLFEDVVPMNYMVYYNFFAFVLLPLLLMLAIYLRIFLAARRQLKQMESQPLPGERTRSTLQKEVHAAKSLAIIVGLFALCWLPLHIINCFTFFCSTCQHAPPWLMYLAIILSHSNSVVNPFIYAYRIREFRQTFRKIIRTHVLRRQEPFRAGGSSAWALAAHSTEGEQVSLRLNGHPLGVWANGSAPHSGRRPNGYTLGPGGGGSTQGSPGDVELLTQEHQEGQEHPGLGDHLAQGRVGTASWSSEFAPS
Experimental: as §1

Chain of hA2a (P29274 whole entry): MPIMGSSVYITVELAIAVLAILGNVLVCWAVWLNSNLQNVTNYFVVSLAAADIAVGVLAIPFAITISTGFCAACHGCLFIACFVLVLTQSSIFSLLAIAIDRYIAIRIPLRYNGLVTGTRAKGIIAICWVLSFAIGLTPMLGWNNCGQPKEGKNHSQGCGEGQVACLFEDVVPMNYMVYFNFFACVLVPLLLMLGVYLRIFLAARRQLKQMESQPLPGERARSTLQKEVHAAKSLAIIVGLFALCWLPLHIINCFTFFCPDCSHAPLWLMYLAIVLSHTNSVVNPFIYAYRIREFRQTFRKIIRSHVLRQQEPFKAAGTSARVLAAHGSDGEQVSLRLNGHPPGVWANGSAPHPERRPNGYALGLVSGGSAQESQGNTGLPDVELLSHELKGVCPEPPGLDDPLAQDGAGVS

SMILES | IC50 (hA2a) [nM] | IC50 (hA1) [nM] | IC50 (hA2b) [nM] | IC50 (mA2a) [nM]
CC(C)n1cc(-c2c(-c3ncco3)nc(N)n3nc(Cc4ncccc4F)nc23)ccc1=O [Example 80, 5-(5-amino-2-((3-fluoropyridin-2-yl)methyl)-7-(oxazol-2-yl)-[1,2,4]triazolo[1,5-c]pyrimidin-8-yl)-1-isopropylpyridin-2(1H)-one] | 3.6 | 25 | 186 | 4.9
Cc1cc(-c2c(-c3ncco3)nc(N)n3nc(Cc4c(F)cccc4F)nc23)cc(N)n1 [Example 81, 8-(2-amino-6-methylpyridin-4-yl)-2-(2,6-difluor obenzyl)-7-(oxazol-2-yl)-[1,2,4]triazolo[1,5-c] pyrimidin-5-amine] | 49 | 5320 | 9090 | 164
Cc1cc(-c2c(-c3ncco3)nc(N)n3nc(Cc4ncccc4F)nc23)cc(Cl)n1 [Example 82, 8-(2-chloro-6-methylpyridin-4-yI)-2-((3-fluoropyridin-2-yl)methyl)-7-(oxazol-2-yl)-[l,2,4]triazolo [1,5-c]pyrimidin-5-amine] | 25 | 2640 | 2910 | 63
Cc1cc(-c2c(-c3ncco3)nc(N)n3nc(Cc4c(F)cccc4F)nc23)cc(C#N)n1 [Example 83, 4-(5-amino-2-(2,6-difluorobenzyl)-7-(oxazol-2-yl)-[1,2,4]triazolo[1,5-c]pyrimidin-8-yl)-6-methylpicolinonitrile] | 18 | 923 | 10000 | 76
Cc1cc(-c2c(-c3ncco3)nc(N)n3nc(Cc4c(F)cccc4F)nc23)cc(C2CC2)n1 [Example 84, 8-(2-cyclopropyl-6-methylpyridin-4-yl)-2-(2,6-difluorobenzyl)-7-(oxazol-2-yl)-[1,2,4]triazolo[1,5-c]pyrimidin-5-amine] | 60 | 2720 | 10000 | 428
Cc1cc(-c2c(-c3ncco3)nc(N)n3nc(Cc4ncccc4F)nc23)cc(OC(F)F)n1 [Example 87] | 27 | 4050 | 5800 | 90
Nc1nc(-c2ccc(F)cc2)c(-c2ccc3ncsc3c2)c2nc(Cc3ncccc3F)nn12 [Example 88, 8-(benzo[d]thiazol-6-yl)-7-(4-fluorophenyl)-2-((3-fluoropyridin-2-yl)methyl)-[1,2,4]triazolo[1,5-c]pyrmidin-5-amine] | 0.7 | 110 | 47 | 2.6
Nc1nc(-c2ccc(F)cc2)c(-c2ccc3ncccc3c2)c2nc(Cc3ncccc3F)nn12 [Example 89, 7-(4-fluorophenyl)-2-[(3-fluoropyridin-2-yl)methyl]-8-(quinolin-6-yl)-[1,2,4]triazolo[1,5-c]pyrimidin-5-amine] | 0.4 | 132 | 82 | 1.3
Cn1cnc2ccc(-c3c(-c4ncco4)nc(N)n4nc(Cc5ncccc5F)nc34)cc21 [Example 90, 2-((3-fluoropyridin-2-yl)methyl)-8-(1-methyl-1H-benzo[d]imidazol-6-yl)-7-(oxazol-2-yl)-[1,2,4] triazolo[1,5-c]pyrimidin-5-amine] | 1.8 | 72 | 48 | 3.5
Cn1cnc2ccc(-c3c(-c4ncco4)nc(N)n4nc(Cc5c(F)cccc5F)nc34)cc21 [Example 91, 2-(2,6-difluorobenzyl)-8-(1-methyl-1H-benzo[d]imidazol-6-yl)-7-(oxazol-2-yl)-[1,2,4]triazolo[1,5-c]pyrimidin-5-amine] | 2.6 | 206 | 102 | 5.1
Cn1cc(-c2c(-c3ccccn3)nc(N)n3nc(Cc4c(F)cccc4F)nc23)ccc1=O [Example 92, 5-[5-amino-2-[(2,6-difluorophenyl)methyl]-7-(pyridin-2-yl)-[1,2,4]triazolo[1,5-c]pyrimidin-8-yl]-1-methyl-1,2-dihydropyridin-2-one] | 8 | 13 | 680 | 11

Source: patent US10858365B2, “Triazolo-pyrimidine compounds and uses thereof” (Dizal (Jiangsu) Pharmaceutical Co., Ltd., priority 2018, dated 2020)
